Target: RET (Homo sapiens (Human), UniProt P07949)
Assay: RET enzyme assay (CisBio HTRF kinEASE)
Assay type: biochemical
Settings: tested compounds listed as lacking activity

Sequence of RET (P07949 658-1114): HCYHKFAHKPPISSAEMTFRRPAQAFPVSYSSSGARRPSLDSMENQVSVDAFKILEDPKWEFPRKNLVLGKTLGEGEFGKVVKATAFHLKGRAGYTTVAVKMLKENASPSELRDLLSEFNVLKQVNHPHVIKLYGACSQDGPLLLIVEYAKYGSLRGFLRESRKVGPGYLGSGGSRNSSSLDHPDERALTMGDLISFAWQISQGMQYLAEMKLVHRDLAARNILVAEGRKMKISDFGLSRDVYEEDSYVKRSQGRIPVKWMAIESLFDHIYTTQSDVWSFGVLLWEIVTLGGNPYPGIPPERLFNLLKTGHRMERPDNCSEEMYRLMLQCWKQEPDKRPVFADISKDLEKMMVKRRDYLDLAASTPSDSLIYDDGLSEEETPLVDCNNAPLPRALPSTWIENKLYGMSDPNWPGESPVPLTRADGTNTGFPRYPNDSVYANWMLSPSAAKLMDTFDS

With CC(C)(C)n1nc(-c2ccc3cc(C(=O)O)[nH]c3c2)c2c(N)ncnc21 [6-(4-amino-1-tert-butyl-pyrazolo[3,4-d]pyrimidin-3-yl)-1H-indole-2-carboxylic acid] the “desired activity in the assays described in Example 51” value (shortened to “desired activity”) was “did not exhibit the desired activity”.

In the case of CC(C)(C)n1nc(-c2ccc3cc(C(=O)Nc4nnc(C(F)(F)F)s4)[nH]c3c2)c2c(N)ncnc21 [6-(4-amino-1-tert-butyl-pyrazolo[3,4-d]pyrimidin-3-yl)-N-[5-(trifluoromethyl)-1,3,4-thiadiazol-2-yl]-1H-indole-2-carboxamide], the “desired activity” value was “did not exhibit the desired activity”.

With CNC(=O)c1cc2ccc(-c3n[nH]c4ncnc(N)c34)cc2[nH]1 [6-(4-amino-1H-pyrazolo[3,4-d]pyrimidin-3-yl)-N-methyl-1H-indole-2-carboxamide] the “desired activity” value was “did not exhibit the desired activity”.

For CNC(=O)c1cc2ccc(-c3nn(CCO)c4ncnc(N)c34)cc2[nH]1 [6-[4-amino-1-(2-hydroxyethyl)pyrazolo[3,4-d]pyrimidin-3-yl]-N-methyl-1H-indole-2-carboxamide], the “desired activity” value was “did not exhibit the desired activity”.

With CNC(=O)c1cc2ccc(-c3nn(CC(=O)N(C)C)c4ncnc(N)c34)cc2[nH]1 [6-[4-amino-1-[2-(dimethylamino)-2-oxo-ethyl]pyrazolo[3,4-d]pyrimidin-3-yl]-N-methyl-1H-indole-2-carboxamide] the “desired activity” value was “did not exhibit the desired activity”.

CNC(=O)c1cc2ccc(-c3nn(CCC(=O)N(C)C)c4ncnc(N)c34)cc2[nH]1 [6-[4-amino-1-[3-(dimethylamino)-3-oxo-propyl]pyrazolo[3,4-d]pyrimidin-3-yl]-N-methyl-1H-indole-2-carboxamide] was tested, and the “desired activity” value was “did not exhibit the desired activity”.

For CCNC(=O)c1cc2ccc(-c3nn([C@H]4CC[C@@H](O)C4)c4ncnc(NC)c34)cc2[nH]1 [N-ethyl-6-[1-[(1S,3R)-3-hydroxycyclopentyl]-4-(methylamino)pyrazolo[3,4-d]pyrimidin-3-yl]-1H-indole-2-carboxamide], the “desired activity” value was “did not exhibit the desired activity”.

Source: US11680068B2, “Compounds useful as RET inhibitors” (Cancer Research Technology Limited, priority 2017, dated 2023)
